# Measured values: US20240132511A1, “TREATMENTS OF PRADER-WILLI SYNDROME” (Neuren Pharmaceuticals Limited, priority 2021, published 2024)
# Legend:
# [1] = test system: Magel2-null mice; assay: Open Field hypoactivity (distance travelled, time spent active); format: in vivo, mouse; set-up: key: **** = p < 0.0001; ns = not significant
# Description: (§1) The mouse locus 7qB4/B5 (syntenic with the Prader-Willi region at chromosome position 15q11-q13 in humans) encompasses the cluster of paternally-expressed imprinted genes Magel2, Ndn, Mkrn3, and Peg12. As maternal imprinting silences the Magel2 allele, only the paternally inherited Magel2 allele is expressed. Heterozygous females were bred with wild-type males (or C57BL/6J inbred males) to maintain the line; as the resulting offspring will have no abnormal phenotype. To obtain “Magel2-null” offspring (both maternal and paternal Magel2 alleles are non-functional), wild-type females are bred with heterozygous males; allowing maternal transmission of the imprinted/silenced wild-type allele and paternal transmission of the Magel2-lacZ (null) allele. Magel2-null mice have disrupted circadian rhythm and metabolism, total activity, food consumption, weight before weaning, and fertility in both sexes, as well as increased adiposity after weaning and altered behavior. Magel2-null mice on this C57BL/6J genetic background recapitulate Prader-Willi syndrome. Because the genetic mutation in the Magel2-null animals is the same as the mutation in human beings, studies in Magel2-null mice are reasonably predictive of effects of compounds in human beings.
# (§2) In vivo experiments were conducted in C57BL/6-Magel2tm1Stw/J (Magel2-null) mice at age P60 and their wild-type littermates during the light phase (littermates that were wild-type for Magel2 were used as controls). Ten mice per treatment group were used for studies 1 and 2, and six mice per group for study 3. In study 1: C57BL/6-Magel2tm1Stw/J (Magel2-null) mice were assessed on behavioral assays. Study 2 tested the efficacy of cG-2-AllylP in treating obesity and insulin levels in Magel2-null mice. Study 3 tested the IGF-1 level in Magel2-null mice. Because human beings have the same genetic abnormality, studies of Magel2-null mice are reasonably predictive of effects of compounds of Formulas I, II, III and IV in human beings with Prader-Willi Syndrome.
# (§3) Testing was performed during the light phase of the circadian cycle, with the order of testing being determined by the principle of conducting the most stressful tests last. Assays were designed to reproduce and expand on the original behavioral characterization of Magel2-null mice. Magel2-null and wild-type control mice were dosed once daily for 6 weeks prior to testing and tested 30 minutes following a dose of cG-2-AllylP (NNZ2591). Study groups and the treatment matrix are described in Table 2 below.
# To evaluate whether cG-2-AllylP is effective to treat the hypoactivity in PWS, Open Field studies were carried out.
# The relative distance travelled or time spent active is shown on the vertical axis, and the mean of each treatment group is shown on the horizontal axis. Wild-type (WT) mice treated with vehicle alone (left column) were considered to travel 100% or to have 100% activity.
# [2] = test system: Magel2-null mice; assay: Nest building quality; format: in vivo, mouse; set-up: key: **** = p < 0.0001; ns = not significant
# Description: as §1, §2, §3
# For small rodents, nests are important in heat conservation as well as reproduction and shelter. Nest building is an activity needed for mice to raise their offspring and is an indicator of social adaptation and activities of daily living. Typically, changes in nesting behaviors, such as failure to create a nest, indicate a change in health or welfare. Nesting behavior is sensitive to many genetic mutations underlying pathological disease states.
# Nesting behavior is impaired in Magel2-null mice. Therefore, to determine if cG-2-AllylP might restore the quality of nest building, a series of studies were carried out.
# [3] = test system: Magel2-null mice; assay: Sniffing test of social interaction; format: in vivo, mouse; set-up: key: **** = p < 0.0001; ns = not significant
# Description: as §1, §2, §3
# People with Prader-Willi Syndrome show deficits in social behavior compared with people without Prader-Willi Syndrome. Two tests were carried out to assess the social behavior deficits of Magel2-null mice.
# The sniffing test of social interaction measures the number of sniffing events.
# [4] = test system: Magel2-null mice; assay: Novel Object Recognition (NOR); format: in vivo, mouse; set-up: key: **** = p < 0.0001; ns = not significant
# Description: as §1, §2, §3
# The NOR test is used to evaluate cognition, based on the tendency for mice to spend more time exploring a novel object that a familiar object. Magel2-null mice display a lack of discrimination between known and novel objects.
# [5] = test system: Magel2-null mice; assay: Circulating IGF-1 level in Magel2-null mice; format: in vivo, mouse; set-up: key: **** = p < 0.0001; ns = not significant
# Procedure: as §2, §3
# Prader-Willi Syndrome may be associated with altered IGF-1 levels in humans.
# [6] = Magel2-null + NNZ2591 (100 mg/kg) vs. Magel2-null + NNZ2591 (200 mg/kg)
# [7] = Magel2-null + Vehicle vs. Magel2-null + NNZ2591 (100 mg/kg)
# [8] = Magel2-null + Vehicle vs. Magel2-null + NNZ2591 (200 mg/kg)
# [9] = WT + NNZ2591 (100 mg/kg) vs. Magel2-null + NNZ2591 (100 mg/kg)
# [10] = WT + NNZ2591 (200 mg/kg) vs. Magel2-null + NNZ2591 (200 mg/kg)
# [11] = WT + Vehicle vs. WT + NNZ2591 (100 mg/kg)
# [12] = WT + Vehicle vs. WT + NNZ2591 (200 mg/kg)
compound,measurement,setting,value
"C=CCC12CCCN1C(=O)CNC2=O [cG-2-AllylP, (8aS)-Allyl-hexahydropyrrolo[1,2-a]pyrazine-1,4-dione]","Open Field (Hypoactivity) - Motility, Sidak's multiple comparisons test, Summary",[1]; [6],ns
same,"Open Field (Hypoactivity) - Distance travelled, Sidak's multiple comparison test, Summary",[1]; [7],**** (**** = p < 0.0001)
same,"Open Field (Hypoactivity) - Distance travelled, Sidak's multiple comparison test, Summary",[1]; [8],**** (**** = p < 0.0001)
same,"Open Field (Hypoactivity) - Motility, Sidak's multiple comparisons test, Summary",[1]; [8],**** (**** = p < 0.0001)
same,"Open Field (Hypoactivity) - Motility, Sidak's multiple comparisons test, Summary",[1]; Magel2-null + Vehicle vs. WT + NNZ2591 (100 mg/kg),**** (**** = p < 0.0001)
same,"Open Field (Hypoactivity) - Distance travelled, Sidak's multiple comparison test, Summary",[1]; [9],ns
same,"Open Field (Hypoactivity) - Motility, Sidak's multiple comparisons test, Summary",[1]; [9],ns
same,"Open Field (Hypoactivity) - Distance travelled, Sidak's multiple comparison test, Summary",[1]; WT + NNZ2591 (100 mg/kg) vs. Magel2-null + NNZ2591 (200 mg/kg),ns
same,"Open Field (Hypoactivity) - Distance travelled, Sidak's multiple comparison test, Summary",[1]; [10],ns
same,"Open Field (Hypoactivity) - Motility, Sidak's multiple comparisons test, Summary",[1]; [10],ns
same,"Open Field (Hypoactivity) - Distance travelled, Sidak's multiple comparison test, Summary",[1]; [11],ns
same,"Open Field (Hypoactivity) - Motility, Sidak's multiple comparisons test, Summary",[1]; [11],ns
same,"Open Field (Hypoactivity) - Distance travelled, Sidak's multiple comparison test, Summary",[1]; [12],ns
same,"Open Field (Hypoactivity) - Motility, Sidak's multiple comparisons test, Summary",[1]; [12],ns
same,"Nesting, Sidak's multiple comparisons test, Summary",[2]; [6],ns
same,"Nesting, Sidak's multiple comparisons test, Summary",[2]; [7],**** (**** = p < 0.00001.)
same,"Nesting, Sidak's multiple comparisons test, Summary",[2]; [8],**** (**** = p < 0.00001.)
same,"Nesting, Sidak's multiple comparisons test, Summary",[2]; [9],ns
same,"Nesting, Sidak's multiple comparisons test, Summary",[2]; [10],ns
same,"Nesting, Sidak's multiple comparisons test, Summary",[2]; [11],ns
same,"Nesting, Sidak's multiple comparisons test, Summary",[2]; [12],ns
same,"Social interaction, Sidak's multiple comparisons test, Summary",[3]; [6],ns
same,"Social interaction, Sidak's multiple comparisons test, Summary",[3]; [7],**** (**** = p < 0.0001)
same,"Social interaction, Sidak's multiple comparisons test, Summary",[3]; [8],**** (**** = p < 0.0001)
same,"Social interaction, Sidak's multiple comparisons test, Summary",[3]; [9],ns
same,"Social interaction, Sidak's multiple comparisons test, Summary",[3]; [10],ns
same,"Social interaction, Sidak's multiple comparisons test, Summary",[3]; WT + Vehicle v. WT + NNZ2591 (100 mg/kg),ns
same,"Social interaction, Sidak's multiple comparisons test, Summary",[3]; [12],ns
same,"Novel object recognition, Sidak's multiple comparisons test, Summary",[4]; [6],ns
same,"Novel object recognition, Sidak's multiple comparisons test, Summary",[4]; [8],**** (**** = p < 0.0001)
same,"Novel object recognition, Sidak's multiple comparisons test, Summary",[4]; [9],ns
same,"Novel object recognition, Sidak's multiple comparisons test, Summary",[4]; [10],ns
same,"Novel object recognition, Sidak's multiple comparisons test, Summary",[4]; [11],ns
same,"Novel object recognition, Sidak's multiple comparisons test, Summary",[4]; [12],ns
same,"IGF-1 level, Sidak's multiple comparisons test, Summary",[5]; [7],**** (**** = p < 0.0001)
same,"IGF-1 level, Sidak's multiple comparisons test, Summary",[5]; [10],ns
same,"IGF-1 level, Sidak's multiple comparisons test, Summary",[5]; [11],ns
same,"IGF-1 level, Sidak's multiple comparisons test, Summary",[5]; [12],ns
same,melting point,,106 to 109 °C
